Data published in patent EP0550007A2, “Eseroline derivatives having anticholinesterase activity, a process for their preparation and pharmaceutical compositions containing them” (priority 1991, dated 1993).

Tests used:
[1] = pharmacokinetics in mouse after oral and intramuscular administration; assay type: in vivo
Procedure: The kinetics of the four products to be considered, is studied in mouse after oral and intramuscular administration, of respectively 7 and 3.5 mg/kg respectively of ESE001, ESE002, ESE003, ESE004.

mouse [2] = experiment: analgesic activity, 2-phenylbenzoquinone test; assay type: in vivo
Description: Expte. Biol. Med. 95, 729, (1957).]
The procedure followed represents a modification of the test developed by Hoffner [Dtsch. Med. Wschr. 55, 731 (1929)].

[3] = toxicity, LD50 i.p. (Table 1); assay type: in vivo; conditions: 50 % of the animals died within 24 hours from the administration; for LD50 at 24 h: in vivo, ip
Procedure: LD50 is determined for the dose (mg/kg) at which 50 % of the animals died within 24 hours from the administration.

[4] = antagonist effect on the stimulating effect of scopolamine (motor activity), ESE series; assay type: in vivo; conditions: oral administration of 2.5 mg; scopolamine 1 mg/kg
Procedure: This is countered by the oral administration of 2.5 mg of ESE001, ESE002, ESE003, ESE004.

acetylcholinesterase = biological target: T1, acetylcholinesterase (Mus musculus, UniProt P21836); experiment: inhibition of acetylcholinesterase activity on the mouse brain after single doses; assay type: in vivo; conditions: for suppression of the enzymatic activity: even at higher doses; for duration of the inhibitory activity compared with physostigmine: mouse brain acetylcholinesterase; for inhibition of the acetylcholinesterase activity, on the mouse brain: single doses in the range 0.4 - 7 mg/kg
T1 construct: from tissue; host or cells: mouse brain
T1 sequence (P21836 32-614): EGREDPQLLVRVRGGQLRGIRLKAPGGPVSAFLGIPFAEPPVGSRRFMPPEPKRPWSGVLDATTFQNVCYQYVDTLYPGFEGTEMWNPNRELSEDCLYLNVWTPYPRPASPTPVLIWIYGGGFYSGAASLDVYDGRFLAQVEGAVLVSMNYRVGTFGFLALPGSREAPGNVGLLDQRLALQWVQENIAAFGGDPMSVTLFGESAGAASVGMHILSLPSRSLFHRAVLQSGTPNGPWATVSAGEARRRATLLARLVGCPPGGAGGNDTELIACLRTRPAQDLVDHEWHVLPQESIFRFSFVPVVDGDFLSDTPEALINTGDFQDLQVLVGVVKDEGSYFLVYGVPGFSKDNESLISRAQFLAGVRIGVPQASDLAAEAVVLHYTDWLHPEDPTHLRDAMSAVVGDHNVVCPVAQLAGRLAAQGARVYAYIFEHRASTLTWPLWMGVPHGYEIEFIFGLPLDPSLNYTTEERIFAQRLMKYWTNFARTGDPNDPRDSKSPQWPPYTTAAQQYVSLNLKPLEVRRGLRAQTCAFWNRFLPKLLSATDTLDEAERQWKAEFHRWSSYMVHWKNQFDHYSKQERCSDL

[5] = acute toxicity, oral LD50 in the mouse; conditions: mouse, in vivo, po
Description: (§1) The mouse was used (Swiss strain having the average weight of the male mice being 26 g and 22 g that of the female mice: 5+5 animals per dose, observation period: 7days) The oral LD50 (suspension in 2% carboxymethylcellulose) were reported hereinbelow: Tab.2

[6] = preliminary pharmacokinetics, plasma level by HPLC; assay type: in vivo, Wistar rats; conditions: rats, 6.2 mg/kg/os
Description: The presence of the substance in the plasma was evidenced by HPLC. With this method, the identification threshold was 0.15 mcg per ml of plasma.

mouse [7] = experiment: spontaneous motility (Dews' method modified according to Carminati); assay type: in vivo, mouse (SWISS strain); conditions: for reduction of spontaneous motility: oral, starting from minimal doses of 3.5-5 mg/kg, on average; for minimal doses causing a marked reduction of spontaneous motility: orally administered
Description: The Dews' method was utilized, as modified according to Carminati (Arch. Int. Pharmacodyn. et Thér. 181, 68,1969).

mouse [8] = experiment: acute toxicity, oral LD50 in the mouse; conditions: oral, suspension in 2% carboxymethylcellulose, observation period 7 days
Description: as §1

[9] = tested on: acetylcholinesterase activity (AchE); experiment: in vivo anticholinesterase activity (blood and brain, Ellman colorimetric method); design: species or system Wistar male rats; conditions: rats, oral, 1.5 to 4 mg/kg; sacrificed after 20, 60 and 120 minutes
Procedure: The derivatives, under question and physostigmine suspended in 2% carboxymethylcellulose, were orally administered to groups of Wistar male rats (average weight about 250 g).
On the base of the obtained results in preliminary trials, the doses utilized for the comparison were comprised beween 0.2 and 0.4 mg/kg for physostigmine and between 1.5 and 4 mg/kg for the eseroline derivatives under question.
The groups of treated rats were sacrificed after 20, 60, and 120 minutes and the blood and the brain of each animal were immediately cooled to 0°C and maintained at this temperature during the successive treatments.
The acetylcholinesterase activity (AchE) was determined by using the Ellman et al's quick colorimetric method (Biochem. Pharmacol., 7, 88, 1961) and it was expressed as enzymatic inhibition percentage.

CN1CC[C@@]2(C)c3cc(OC(=O)N4CCCC4)ccc3N(C)[C@@H]12 (relative stereo) [ESE001, (3-aS-cis)-1,2,3,3a,8,8a-hexahydro 1,3a,8-trimethylpyrrole [2,3-B]-indole 5-ol-1-pyrrolidinyl-carbamate ester]
liver kinetics / excretion [1]: pass through into the urine unchanged | analgesic activity (mouse [2]): show also analgesic activity | LD50 [3]: 5 mg/kg | countering of the stimulating effect of scopolamine [4]: countered | suppression of the enzymatic activity (acetylcholinesterase): do not suppress the enzymatic activity | duration of the inhibitory activity compared with physostigmine (acetylcholinesterase): last longer than that of physostigmine | inhibition of the acetylcholinesterase activity, on the mouse brain (acetylcholinesterase): dose-dependence, reversible inhibition

CN1CC[C@@]2(C)c3cc(OC(=O)NN4CCNCC4)ccc3N(C)[C@@H]12 [ESE002, (3-aS-cis)-1,2,3,3a,8,8a-hexahydro 1,3a,8-trimethylpyrrole [2,3-B]-indole 5-ol-1-piperazinyl-carbamate ester]
liver kinetics / excretion [1]: pass through into the urine unchanged | analgesic activity (mouse [2]): show also analgesic activity | LD50 ([3]; 1440 min): <80 mg/kg | LD50 at 24 h [3]: > 40 mg/kg | countering of the stimulating effect of scopolamine [4]: countered | suppression of the enzymatic activity (acetylcholinesterase): do not suppress the enzymatic activity | duration of the inhibitory activity compared with physostigmine (acetylcholinesterase): last longer than that of physostigmine | inhibition of the acetylcholinesterase activity, on the mouse brain (acetylcholinesterase): dose-dependence, reversible inhibition

CN1CC[C@@]2(C)c3cc(OC(=O)NN4CCOCC4)ccc3N(C)[C@@H]12 [ESE003, (3-aS-cis)-1,2,3,3a,8,8a-hexahydro 1,3a,8-trimethylpyrrole [2,3-B]-indole 5-ol-1-morpholinyl-carbamate ester]
liver kinetics / excretion [1]: pass through into the urine unchanged | analgesic activity (mouse [2]): show also analgesic activity | LD50 ([3]; 1440 min): <80 mg/kg | LD50 at 24 h [3]: > 40 mg/kg | countering of the stimulating effect of scopolamine [4]: countered | suppression of the enzymatic activity (acetylcholinesterase): do not suppress the enzymatic activity | duration of the inhibitory activity compared with physostigmine (acetylcholinesterase): last longer than that of physostigmine | inhibition of the acetylcholinesterase activity, on the mouse brain (acetylcholinesterase): dose-dependence, reversible inhibition

CN1CC[C@@]2(C)c3cc(OC(=O)NN4CCSCC4)ccc3N(C)[C@@H]12 [ESE004, (3-aS-cis)-1,2,3,3a,8,8a-hexahydro 1,3a,8-trimethylpyrrole [2,3-B]-indole 5-ol-1-thio-morpholinyl-carbamate ester]
liver kinetics / excretion [1]: pass through into the urine unchanged | analgesic activity (mouse [2]): show also analgesic activity | LD50 ([3]; 1440 min): <80 mg/kg | LD50 at 24 h [3]: > 40 mg/kg | countering of the stimulating effect of scopolamine [4]: countered | suppression of the enzymatic activity (acetylcholinesterase): do not suppress the enzymatic activity | duration of the inhibitory activity compared with physostigmine (acetylcholinesterase): last longer than that of physostigmine | inhibition of the acetylcholinesterase activity, on the mouse brain (acetylcholinesterase): dose-dependence, reversible inhibition

CN1CC[C@@]2(C)c3cc(OC(=O)NN4CCN(CCO)CC4)ccc3N(C)[C@@H]12 [ESE005]
LD50 ([3]; 1440 min): >40 mg/kg | LD50 at 24 h [3]: < 80 mg/kg

CN1CC[C@@]2(C)c3cc(OC(=O)NN4CCCNCC4)ccc3N(C)[C@@H]12 [ESE006, (3-aS-cis)-1,2,3,3a,8,8a-hexahydro 1,3a,8-trimethylpyrrole [2,3-B]-indole 5-ol-homopiperazinylcarbamate ester]
LD50 ([3]; 1440 min): <80 mg/kg | LD50 at 24 h [3]: > 40 mg/kg

CC1CCCC(C)N1NC(=O)Oc1ccc2c(c1)[C@]1(C)CCN(C)[C@@H]1N2C (stereo partly drawn) [ESE007, (3-aS-cis)-1,2,3,3a,8,8a-hexahydro 1,3a,8-trimethylpyrrole [2,3-B]-indole 5-ol-1-(2,6-dimethyl) piperidine carbamate ester]
LD50 ([3]; 1440 min): < 80 mg/kg | LD50 at 24 h [3]: > 40 mg/kg

CCCC1CN(NC(=O)Oc2ccc3c(c2)[C@]2(C)CCN(C)[C@@H]2N3C)CCO1 (stereo partly drawn) [ESE009, (3-aS-cis)-1,2,3,3a,8,8a-hexahydro 1,3a,8-trimethylpyrrole [2,3-B]-indole 5-ol-4-(3-propyl)-morpholinylcarbamate ester]
LD50 ([3]; 1440 min): < 60 mg/kg | LD50 at 24 h [3]: > 30 mg/kg

CCCC1CCCN(NC(=O)Oc2ccc3c(c2)[C@]2(C)CCN(C)[C@@H]2N3C)C1C (stereo partly drawn) [ESE010, (3-aS-cis)-1,2,3,3a,8,8a-hexahydro 1,3a,8-trimethylpyrrole [2,3-B]-indole 5-ol-1-(3-propyl)-2-pipecolinylcarbamate ester]
LD50 ([3]; 1440 min): < 60 mg/kg | LD50 at 24 h [3]: > 30 mg/kg

CCCC1CCN(NC(=O)Oc2ccc3c(c2)[C@]2(C)CCN(C)[C@@H]2N3C)C1=O (stereo partly drawn) [ESE011, (3-aS-cis)-1,2,3,3a,8,8a-hexahydro 1,3a,8-trimethylpyrrole [2,3-B]-indole 5-ol-1-(3-propyl)-2 pyrrolidone-carbamate ester]
LD50 ([3]; 1440 min): < 60 mg/kg | LD50 at 24 h [3]: > 30 mg/kg

CN1CC[C@@]2(C)c3cc(OC(=O)NC4CN5CCC4CC5)ccc3N(C)[C@@H]12 (stereo partly drawn) [ESE012, (3-aS-cis)-1,2,3,3a,8,8a-hexahydro 1,3a,8-trimethylpyrrole [2,3-B]-indole 5-ol-3 quinuclidyl-carbamate ester]
LD50 ([3]; 1440 min): < 60 mg/kg | LD50 at 24 h [3]: > 30 mg/kg

CN1CC[C@@]2(C)c3cc(OC(=O)N[C@H]4CCCCNC4=O)ccc3N(C)[C@@H]12 [MGT1, eseroline R-caprolactam carbamate]
LD50 at 168 h [5]: 322 mg/kg | maximum peak in plasma [6]: 36.14 ± 7.12 µg/mL | time of the maximum peak [6]: 90 ' | concentration in plasma ([6]; after 24 hours): 5090 ± 1710 ng/mL | concentration in plasma ([6]; time not given): 17110 ± 3810 ng/mL | reduction of spontaneous motility (mouse [7]): ~-39% | minimal doses causing a marked reduction of spontaneous motility (mouse [7]): 3.5 to 5 mg/kg

CN1CCC2(C)c3cc(OC(=O)NC4CCCN(CCO)C4=O)ccc3N(C)C12 (centres unmarked) [MGT3, eseroline N-ethanol-2-piperidone-3 aminocarbamate]
LD50 in the mouse (mouse [8]): 383,7 ± 41,2 mg/kg | inhibitory activity of the acetylcholinesterase [9]: evident dose dipendent and reversible inhibitory activity | reduction of spontaneous motility (mouse [7]): ~-39% | minimal doses causing a marked reduction of spontaneous motility (mouse [7]): 3.5 to 5 mg/kg

CN1CC[C@@]2(C)c3cc(OC(=O)N[C@H]4C(O)O[C@H](CO)[C@@H](O)[C@@H]4O)ccc3N(C)[C@@H]12 (stereo partly drawn) [MGT4, eseroline N-D-glucosamine carbamate]
LD50 at 168 h [5]: 398 mg/kg | reduction of spontaneous motility (mouse [7]): ~-39% | minimal doses causing a marked reduction of spontaneous motility (mouse [7]): 3.5 to 5 mg/kg

CN1CC[C@@]2(C)c3cc(OC(=O)Nc4ccc5c(c4)OCO5)ccc3N(C)[C@@H]12 [MGT7, eseroline 1,3 benzodioxol-5 carbamate]
LD50 at 168 h [5]: 332 mg/kg | inhibitory activity of the acetylcholinesterase [9]: evident dose dipendent and reversible inhibitory activity | reduction of spontaneous motility (mouse [7]): ~-39% | minimal doses causing a marked reduction of spontaneous motility (mouse [7]): 3.5 to 5 mg/kg

CNC(=O)Oc1ccc2c(c1)[C@]1(C)CCN(C)[C@@H]1N2C [Physostigmine, reference compound]
LD50 in the mouse (mouse [8]): 4,39 ± 1,14 mg/kg | LD50 at 24 h [3]: 0.64 mg/kg
